From the supplement of paper PMC10307832

How the values were obtained:
Assay in all cases: relative viability (nuclei count vs DMSO), 5 days (fraction); higher = more cells survive
[1] = compound: NC(=O)[C@@H](CCC(F)(F)F)N(Cc1ccc(-c2ncon2)cc1F)S(=O)(=O)c1ccc(Cl)cc1 [Avagacestat] + Nc1nc2[nH]cc(CCc3ccc(C(=O)N[C@@H](CCC(=O)O)C(=O)O)cc3)c2c(=O)[nH]1 [Pemetrexed] (partner 0.2 µM)
How it was run: (§1)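 Relative viability equals treated-well nuclei counts divided by vehicle-well nuclei counts. Counts came from 4× images of lung cancer cell lines grown in 1536-well plates for 5 days after pin-tool dosing on the day after seeding. Dosing used one drug alone or a fixed anchor-drug dose plus five library-drug doses (not always all listed) in √10 steps, and values are medians of duplicate plates.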

[2] = compound: NC(=O)[C@@H](CCC(F)(F)F)N(Cc1ccc(-c2ncon2)cc1F)S(=O)(=O)c1ccc(Cl)cc1 [Avagacestat] + O=C(c1cc(Cc2n[nH]c(=O)c3ccccc23)ccc1F)N1CCN(C(=O)C2CC2)CC1 [Olaparib] (partner 8 µM)
How it was run: as §1

[3] = compound: NC(=O)[C@@H](CCC(F)(F)F)N(Cc1ccc(-c2ncon2)cc1F)S(=O)(=O)c1ccc(Cl)cc1 [Avagacestat] + CC(C)C[C@H](NC(=O)[C@H](Cc1ccccc1)NC(=O)c1cnccn1)B(O)O [Bortezomib] (partner 0.002 µM)
How it was run: as §1

[4] = compound: NC(=O)[C@@H](CCC(F)(F)F)N(Cc1ccc(-c2ncon2)cc1F)S(=O)(=O)c1ccc(Cl)cc1 [Avagacestat] + Cc1nc(NC(=O)N2CCC[C@H]2C(N)=O)sc1-c1ccnc(C(C)(C)C(F)(F)F)c1 [Alpelisib] (partner 2 µM)
How it was run: as §1

| Cell Line | relative viability ([1]; first compound 0.08 µM) | relative viability ([1]; first compound 0.253 µM) | relative viability ([1]; first compound 0.8 µM) | relative viability ([1]; first compound 2.53 µM) | relative viability ([1]; first compound 8 µM) | relative viability ([2]; first compound 0.08 µM) | relative viability ([2]; first compound 0.253 µM) | relative viability ([2]; first compound 0.8 µM) | relative viability ([2]; first compound 2.53 µM) | relative viability ([2]; first compound 8 µM) | relative viability ([3]; first compound 0.08 µM) | relative viability ([3]; first compound 0.253 µM) | relative viability ([3]; first compound 0.8 µM) | relative viability ([3]; first compound 2.53 µM) | relative viability ([3]; first compound 8 µM) | relative viability ([4]; first compound 0.08 µM) | relative viability ([4]; first compound 0.253 µM) | relative viability ([4]; first compound 0.8 µM) | relative viability ([4]; first compound 2.53 µM) | relative viability ([4]; first compound 8 µM) |
| --- | --- | --- | --- | --- | --- | --- | --- | --- | --- | --- | --- | --- | --- | --- | --- | --- | --- | --- | --- | --- |
| 201T | 0.314 | 0.352 | 0.351 | 0.301 | 0.335 | 0.925 | 0.812 | 0.871 | 0.79 | 0.737 | 1.1 | 1.08 | 1.2 | 1.11 | 1.09 | 1.04 | 1.02 | 1.04 | 0.892 | 0.887 |
| A-427 | 1.07 | 1.09 | 1.22 | 1.04 | 1.07 | 0.832 | 0.778 | 0.83 | 0.684 | 0.751 | 0.957 | 1.08 | 1.07 | 1.07 | 1.08 | 1.14 | 1.2 | 1.1 | 1.07 | 1.14 |
| BEN | 0.879 | 0.897 | 0.851 | 0.904 | 0.807 | 1.12 | 1.24 | 1.05 | 0.838 | 1.05 | 0.936 | 0.789 | 0.954 | 0.533 | 0.775 | 1.13 | 1.01 | 0.944 | 0.774 | 1.07 |
| CAL-12T | 1.7 | 1.49 | 1.67 | 1.42 | 1.25 | 0.73 | 0.715 | 0.773 | 0.782 | 0.83 | 1.13 | 0.982 | 1.42 | 1.09 | 1.14 | 1.39 | 1.74 | 1.27 | 1.17 | 1.24 |
| COR-L23 | 0.178 | 0.197 | 0.207 | 0.214 | 0.201 | 0.326 | 0.3 | 0.339 | 0.308 | 0.284 | 1.58 | 1.3 | 1.14 | 1.03 | 0.528 | 0.982 | 1.01 | 0.788 | 0.743 | 0.568 |
| COR-L 105 | 1.2 | 1.21 | 1.12 | 0.983 | 1.02 | 0.724 | 0.664 | 0.845 | 0.601 | 0.565 | 0.894 | 0.681 | 0.689 | 0.697 | 0.687 | 1.14 | 0.917 | 0.976 | 0.679 | 0.612 |
| EKVX | 0.5 | 0.462 | 0.529 | 0.439 | 0.373 | 1.04 | 0.926 | 0.918 | 0.73 | 0.769 | 1.18 | 1.44 | 1.23 | 0.885 | 0.9 | 0.974 | 0.971 | 0.878 | 0.832 | 0.811 |
| EMC-BAC-2 | 0.52 | 0.595 | 0.634 | 0.557 | 0.544 | 0.542 | 0.626 | 0.623 | 0.548 | 0.616 | 1.22 | 1.17 | 1.23 | 1.08 | 1.11 | 0.897 | 0.81 | 0.748 | 0.653 | 0.717 |
| EPLC-272H | 0.322 | 0.429 | 0.318 | 0.31 | 0.267 | 0.939 | 1.04 | 0.905 | 0.783 | 0.635 | 1.02 | 1.02 | 1.05 | 1.21 | 0.922 | 1.05 | 1 | 1.02 | 1.09 | 0.865 |
| H3255 | 0.57 | 0.622 | 0.591 | 0.552 | 0.557 | 0.626 | 0.663 | 0.609 | 0.621 | 0.572 | 1.02 | 0.966 | 1.08 | 0.817 | 0.788 | 0.759 | 0.736 | 0.836 | 0.678 | 0.741 |
| HARA | 0.227 | 0.203 | 0.226 | 0.257 | 0.244 | 0.852 | 0.958 | 0.869 | 0.501 | 0.834 | 1.71 | 1.09 | 1.17 | 1.16 | 1.07 | 0.914 | 0.783 | 0.929 | 0.782 | 0.567 |
| HCC-15 | 0.227 | 0.22 | 0.232 | 0.212 | 0.194 | 0.755 | 0.887 | 0.862 | 0.77 | 0.674 | 1.22 | 1.21 | 1.24 | 0.973 | 0.921 | 1.01 | 1.05 | 0.93 | 0.861 | 0.802 |
| HCC-44 | 0.733 | 0.68 | 0.706 | 0.66 | 0.639 | 1.04 | 1.05 | 1.07 | 1.01 | 1 | 1.06 | 1.09 | 0.934 | 0.965 | 0.829 | 0.939 | 0.746 | 0.8 | 0.667 | 0.645 |
| HCC-78 | 0.901 | 0.976 | 0.933 | 0.883 | 0.851 | 0.786 | 0.948 | 0.632 | 0.67 | 0.712 | 0.508 | 0.51 | 0.514 | 0.313 | 0.366 | 0.299 | 0.358 | 0.347 | 0.269 | 0.321 |
| HCC-366 | 0.199 | 0.195 | 0.191 | 0.161 | 0.142 | 0.45 | 0.461 | 0.378 | 0.402 | 0.308 | – | 1.98 | 1.29 | 1.22 | 0.887 | 0.749 | 0.679 | 0.565 | 0.361 | 0.308 |
| HCC-827 | 0.304 | 0.271 | 0.296 | 0.221 | 0.257 | 0.724 | 0.734 | 0.687 | 0.607 | 0.656 | 1.09 | 1.13 | 1.13 | 1.05 | 1.12 | 1.04 | 0.984 | 1.05 | 0.874 | 0.972 |
